Assay results reported in patent US8273760B2, “Indolo[3,2-c]quinoline compounds” (Kaohsiung Medical University, priority 2008, dated 2012).
Structures can show the parent of a compound that is named as a salt. Where two headings read alike, the source gives them in different places.

Columns and labels:
OVCAR-8 = test: In vitro anticancer assay (NCI panel), OVCAR-8; assay type: cell-based; conditions: Homo sapiens; OVCAR-8, ovarian cancer
Procedure: (§1) Selected compounds were evaluated in vitro against the NCI's full panel of 60 cancer cell lines derived from nine cancer cell types, including: leukemia (CCRF-CEM, HL-60 (TB), K-562, MOLT-4, RPMI-8226, and SR); non-small cell lung cancer (A549/ATCC, EKVX, HOP-62, HOP-92, NCI-H226, NCI-H23, NCI-H322M, and NCI-H522); colon cancer (COLO 205, HCC-2998, HCT-116, HCT-15, HT29, KM12, and SW-620); CNS cancer (SF-268, SF-295, SF-539, SNB-19, SNB-75, and U251); melanoma (LOX IMVI, MALME-3M, M14, SK-MEL-2, SK-MEL-28, SK-MEL-5, UACC-62, and UACC-257); ovarian cancer (IGROV1, OVCAR-3, OVCAR-4, OVCAR-5, OVCAR-8, and SK-OV-3); renal cancer (786-0, A498, ACHN, CAKI-1, RXF 393, SN12C, TK-10, and UO-31); prostate cancer (PC-3 and DU-145); and breast cancer (MCF7, MCF7/ADR-RES, MDA-MB-231/ATCC, HS 578T, MDA-MB-435, MDA-N, and T-47D). For each compound, dose-response curves for each cell line were measured with five different drug concentrations, and the concentration causing 50% cell growth inhibition (GI50) compared with the control was calculated. The mean GI50 values of each tested compound for all the 60 tumor cell lines were also calculated.

SNB-19 = test: In vitro anticancer assay (NCI panel), SNB-19; assay type: cell-based; conditions: Homo sapiens; SNB-19, CNS cancer
Procedure: as §1

MCF7 = test: In vitro anticancer assay (NCI panel), MCF7; assay type: cell-based; conditions: Homo sapiens; MCF7, breast cancer
Procedure: as §1

HL-60 (TB) = test: In vitro anticancer assay (NCI 60 cell line panel), HL-60 (TB); assay type: cell-based; conditions: Homo sapiens, leukemia
Procedure: as §1

[1] = system: NCI's full panel of 60 cancer cell lines; test: In vitro anticancer assay, all cell lines of the NCI panel; assay type: cell-based, human; conditions: Homo sapiens
Procedure: as §1

SR = test: In vitro anticancer assay (NCI panel), SR; assay type: cell-based; conditions: Homo sapiens, leukemia
Procedure: as §1

ACHN = test: In vitro anticancer assay (NCI panel), ACHN; assay type: cell-based; conditions: Homo sapiens, renal cancer
Procedure: as §1

DU-145 = test: In vitro anticancer assay (NCI panel), DU-145; assay type: cell-based; conditions: Homo sapiens; DU-145, prostate cancer
Procedure: as §1

UACC-62 = test: In vitro anticancer assay (NCI panel), UACC-62; assay type: cell-based; conditions: Homo sapiens; UACC-62, melanoma
Procedure: as §1

SK-MEL-2 = test: In vitro anticancer assay (NCI panel), SK-MEL-2; assay type: cell-based; conditions: Homo sapiens; SK-MEL-2, melanoma
Procedure: as §1

HT29 = test: In vitro anticancer assay (NCI panel), HT29; assay type: cell-based; conditions: Homo sapiens, HT-29; HT29, colon cancer
Procedure: as §1

786-0 = test: In vitro anticancer assay (NCI panel), 786-0; assay type: cell-based; conditions: Homo sapiens; 786-0, renal cancer
Procedure: as §1

OVCAR-5 = test: In vitro anticancer assay (NCI panel), OVCAR-5; assay type: cell-based; conditions: Homo sapiens; OVCAR-5, ovarian cancer
Procedure: as §1

K-562 = test: In vitro anticancer assay (NCI panel), K-562; assay type: cell-based; conditions: Homo sapiens, K562; K-562, leukemia
Procedure: as §1

HOP-62 = test: In vitro anticancer assay (NCI panel), HOP-62; assay type: cell-based; conditions: Homo sapiens; HOP-62, non-small cell lung cancer
Procedure: as §1

A549/ATCC = test: In vitro anticancer assay (NCI panel), A549/ATCC; assay type: cell-based; conditions: Homo sapiens, non-small cell lung cancer
Procedure: as §1

SF-295 = test: In vitro anticancer assay (NCI panel), SF-295; assay type: cell-based; conditions: Homo sapiens; SF-295, CNS cancer
Procedure: as §1

OVCAR-3 = test: In vitro anticancer assay (NCI panel), OVCAR-3; assay type: cell-based; conditions: Homo sapiens; OVCAR-3, ovarian cancer
Procedure: as §1

MDA-MB-231/ATCC = test: In vitro anticancer assay (NCI panel), MDA-MB-231/ATCC; assay type: cell-based; conditions: Homo sapiens, breast cancer
Procedure: as §1

COLO 205 = test: In vitro anticancer assay (NCI panel), COLO 205; assay type: cell-based; conditions: Homo sapiens; COLO 205, colon cancer
Procedure: as §1

SF-268 = test: In vitro anticancer assay (NCI panel), SF-268; assay type: cell-based; conditions: Homo sapiens; SF-268, CNS cancer
Procedure: as §1

SN12C = test: In vitro anticancer assay (NCI panel), SN12C; assay type: cell-based; conditions: Homo sapiens, renal cancer
Procedure: as §1

MDA-MB-435 = test: In vitro anticancer assay (NCI panel), MDA-MB-435; assay type: cell-based; conditions: Homo sapiens; MDA-MB-435, breast cancer
Procedure: as §1

NCI-H460 = test: In vitro anticancer assay (NCI panel), NCI-H460; assay type: cell-based; conditions: Homo sapiens; NCI-H460, non-small cell lung cancer
Procedure: as §1

LOX IMVI = test: In vitro anticancer assay (NCI panel), LOX IMVI; assay type: cell-based; conditions: Homo sapiens, melanoma
Procedure: as §1

HCT-116 = test: In vitro anticancer assay (NCI panel), HCT-116; assay type: cell-based; conditions: Homo sapiens; HCT-116, colon cancer
Procedure: as §1

PC-3 = test: In vitro anticancer assay (NCI panel), PC-3; assay type: cell-based; conditions: Homo sapiens; PC-3, prostate cancer
Procedure: as §1

telomerase = telomerase (Homo sapiens, UniProt O14746); test: Telomeric Repeat Amplification Protocol (TRAP) assay, cell-free; conditions: 0.5 μg total cell extract from H1299 human lung cancer cells, FIG. 1
telomerase, sequence (O14746 whole entry): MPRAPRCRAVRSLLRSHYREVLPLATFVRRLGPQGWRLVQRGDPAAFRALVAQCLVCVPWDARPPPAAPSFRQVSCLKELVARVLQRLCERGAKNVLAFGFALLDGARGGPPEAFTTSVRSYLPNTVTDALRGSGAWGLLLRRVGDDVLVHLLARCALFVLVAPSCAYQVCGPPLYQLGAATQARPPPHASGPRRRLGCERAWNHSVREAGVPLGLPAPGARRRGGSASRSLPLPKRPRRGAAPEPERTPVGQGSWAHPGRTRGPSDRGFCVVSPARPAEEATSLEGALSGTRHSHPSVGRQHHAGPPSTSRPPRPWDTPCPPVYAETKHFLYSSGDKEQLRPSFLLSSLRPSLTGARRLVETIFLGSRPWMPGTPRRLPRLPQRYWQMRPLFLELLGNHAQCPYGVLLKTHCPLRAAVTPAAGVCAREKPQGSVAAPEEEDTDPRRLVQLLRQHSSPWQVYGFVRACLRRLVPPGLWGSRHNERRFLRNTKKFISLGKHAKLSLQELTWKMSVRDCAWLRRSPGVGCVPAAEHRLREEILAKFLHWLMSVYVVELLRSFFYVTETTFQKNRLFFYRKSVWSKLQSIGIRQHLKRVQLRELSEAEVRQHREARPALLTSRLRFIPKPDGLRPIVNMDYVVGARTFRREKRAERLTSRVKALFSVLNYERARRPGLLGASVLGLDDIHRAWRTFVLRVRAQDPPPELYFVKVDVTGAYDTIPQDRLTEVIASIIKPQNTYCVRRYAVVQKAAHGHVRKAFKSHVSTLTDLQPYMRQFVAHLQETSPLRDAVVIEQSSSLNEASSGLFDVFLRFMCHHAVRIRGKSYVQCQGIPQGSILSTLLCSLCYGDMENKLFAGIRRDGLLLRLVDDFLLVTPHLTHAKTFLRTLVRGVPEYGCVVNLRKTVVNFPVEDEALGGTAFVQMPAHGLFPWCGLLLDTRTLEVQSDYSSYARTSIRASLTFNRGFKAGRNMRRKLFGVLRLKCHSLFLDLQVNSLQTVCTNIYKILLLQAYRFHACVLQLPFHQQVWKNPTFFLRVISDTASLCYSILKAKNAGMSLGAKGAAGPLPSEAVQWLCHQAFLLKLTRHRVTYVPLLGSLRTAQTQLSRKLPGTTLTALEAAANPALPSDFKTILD

[2] = mean values of over all cell lines tested, read-out: MG MID (mean GI50)

SMILES | melting point | GI50 (OVCAR-8) | GI50 (SNB-19) | GI50 (MCF7) | GI50 (HL-60 (TB)) | GI50 [1, 2] | GI50 (SR) | GI50 (ACHN) | GI50 (DU-145) | GI50 (UACC-62) | GI50 (SK-MEL-2) | GI50 (HT29) | GI50 (786-0) | GI50 (OVCAR-5) | GI50 (K-562) | GI50 (HOP-62) | GI50 (A549/ATCC) | GI50 (SF-295) | GI50 (OVCAR-3) | GI50 (MDA-MB-231/ATCC) | also measured
c1ccc2c(c1)nc(NCCN1CCNCC1)c1c3ccccc3[nH]c21 (as salt: hydrochloride) [Compound 5, N-(11H-Indolo[3,2-c]quinolin-6-yl)-2-(piperazin-1-yl)ethanamine] | 210 to 211 °C |  |  |  |  |  |  |  |  |  |  |  |  |  |  |  |  |  |  |  | 
Cl.OCCNc1nc2ccccc2c2[nH]c3ccccc3c12 [Compound 7d, 2-(11H-indolo[3,2-c]quinolin-6-ylamino)ethanol hydrochloride] | 344 to 345 °C | 0.36 µM | 0.41 µM | 0.37 µM | 0.56 µM | 0.46 µM | 0.21 µM | 0.16 µM | 0.69 µM | 1.15 µM | 0.57 µM | 0.28 µM | 0.45 µM | 1.03 µM | 0.46 µM | 0.58 µM | 0.41 µM | 0.45 µM | 0.47 µM | 0.43 µM | GI50 (COLO 205): 0.31 µM; GI50 (SF-268): 0.56 µM; GI50 (SN12C): 0.22 µM; GI50 (MDA-MB-435): 0.41 µM; GI50 (NCI-H460): 0.29 µM; GI50 (LOX IMVI): 0.36 µM; GI50 (HCT-116): 0.23 µM
Cl.Nc1nc2ccccc2c2[nH]c3ccccc3c12 [Compound 7e, 11H-Indolo[3,2-c]quinolin-6-ylamine hydrochloride] | 377 to 378 °C | 0.98 µM | 1.1 µM | 1.19 µM | 1.98 µM | 1.29 µM | 0.64 µM | 0.48 µM | 1.94 µM | 13.5 µM | 1.54 µM | 0.51 µM | 1.12 µM | 1.84 µM | 0.62 µM | 1.13 µM | 1.09 µM | 1.03 µM | 1.42 µM | 1.22 µM | GI50 (COLO 205): 1.07 µM; GI50 (SF-268): 1.97 µM; GI50 (SN12C): 1.24 µM; GI50 (MDA-MB-435): 0.94 µM; GI50 (NCI-H460): 0.41 µM; GI50 (LOX IMVI): 1.05 µM; GI50 (HCT-116): 0.5 µM
CN(CCCNc1nc2ccccc2c2[nH]c3ccccc3c12)CCCNc1nc2ccccc2c2[nH]c3ccccc3c12.Cl [Compound 8b, N,N-bis-[3-(11H-indolo[3,2-c]quinolin-6-yl)aminopropyl]-N-methylamine hydrochloride] |  | < 0.01 µM | < 0.01 µM | < 0.01 µM | < 0.01 µM | < 0.02 µM | < 0.01 µM | 0.02 µM | 0.05 µM | 0.06 µM | 0.07 µM | < 0.01 µM | < 0.01 µM | 0.08 µM | < 0.01 µM | < 0.01 µM | < 0.01 µM | < 0.01 µM | 0.05 µM | 0.09 µM | GI50 ([1]; span over the cell lines of Table 2, read-out: GI50 value for each cell line (span over the cell lines)): 0.01 to 0.11 µM; GI50 (PC-3): 0.07 µM; GI50 (COLO 205): 0.02 µM; GI50 (SF-268): < 0.01 µM; GI50 (SN12C): < 0.01 µM; GI50 (MDA-MB-435): 0.11 µM; GI50 (NCI-H460): < 0.01 µM; concentration that completely inhibited telomerase activity (telomerase): approximately 0.02 nM; GI50 (LOX IMVI): < 0.01 µM; GI50 (HCT-116): < 0.01 µM
Cl.OCCNCCNc1nc2ccccc2c2[nH]c3ccccc3c12 [Compound 9, 2-[2-(11H-Indolo[3,2-c]quinolin-6-ylamino)ethylamino]ethanol hydrochloride] | 276 °C | 0.81 µM | 2.1 µM | 1.24 µM | 1.31 µM | 1.07 µM | 0.9 µM | 0.38 µM | 0.74 µM | 2 µM | 2.25 µM | 0.56 µM | 0.34 µM | 0.58 µM | 1.55 µM | 0.37 µM | 0.98 µM | 1.41 µM | 1.31 µM | 1.24 µM | GI50 (PC-3): 0.88 µM; GI50 (COLO 205): 1.76 µM; GI50 (SF-268): 1.36 µM; GI50 (SN12C): 1.26 µM; GI50 (MDA-MB-435): 1.46 µM; GI50 (NCI-H460): 1.46 µM; GI50 (LOX IMVI): 0.44 µM; GI50 (HCT-116): 0.19 µM
